Test results as given in ChEMBL document CHEMBL5649170, “Sustained microglial depletion with CSF1R inhibitor impairs parenchymal plaque development in an Alzheimer's disease model” (Nat Commun, 2019).
Activity calls are given as the source filed them. No cut-off for these calls is given here.

How the values were obtained:
AMPK alpha2/beta1/gamma1 = AMPK alpha2/beta1/gamma1 (Homo sapiens, UniProt P54619+P54646+Q9Y478); assay: Inhibition of AMPK_A2/B1/G1 (unknown origin); format: protein-complex assay
[1] = target: Death-associated protein kinase 1 (Homo sapiens, UniProt P53355); assay: Inhibition of DAPK1 (unknown origin)
[2] = target: Epidermal growth factor receptor (Homo sapiens, UniProt P00533); assay: Inhibition of EGFR (unknown origin)
[3] = target: Inhibitor of nuclear factor kappa-B kinase subunit beta (Homo sapiens, UniProt O14920); assay: Inhibition of IKBKB (unknown origin)
[4] = target: MAP/microtubule affinity-regulating kinase 4 (Homo sapiens, UniProt Q96L34); assay: Inhibition of MARK4 (unknown origin)
[5] = target: Macrophage-stimulating protein receptor (Homo sapiens, UniProt Q04912); assay: Inhibition of MST1R (unknown origin)
[6] = target: Phosphorylase b kinase gamma catalytic chain, skeletal muscle/heart isoform (Homo sapiens, UniProt Q16816); assay: Inhibition of PHKG1 (unknown origin)
[7] = target: Ribosomal protein S6 kinase alpha-1 (Homo sapiens, UniProt Q15418); assay: Inhibition of RPS6KA1 (unknown origin)
[8] = target: Ribosomal protein S6 kinase alpha-4 (Homo sapiens, UniProt O75676); assay: Inhibition of RPS6KA4 (unknown origin)
[9] = AUC (0 to infinity) in dog at 1.00 mg/kg, iv administered as single dose; format: ADME, organism-based, Canis lupus familiaris; details: in vivo
[10] = Volume of distribution at steady state in dog at 1.00 mg/kg, iv administered as single dose; format: ADME, organism-based, Canis lupus familiaris; details: in vivo, read-out: Vdss
Mus musculus [11] = assay: Antialzheimer activity in 5XFAD mouse assessed as number of Iba positive cells per FOV in microglia at 1200 ppm administered as rodent chow for 5 days by DAPI staining based immunolabeling analysis (reference value: 119 to 154); format: functional; details: route po, time 5 day
Mus musculus [12] = assay: Antialzheimer activity in 5XFAD mouse assessed as time spent in closed arm at 1200 ppm administered as rodent chow for 10 to 24 weeks by Elevated plus maze test (reference value: 76.2 to 206.2 sec); format: functional; details: route po, time 10-24 weeks
[13] = Toxicity in wildtype mouse assessed as time to locate platform at 1200 ppm administered as rodent chow for 10 to 24 weeks by Morris water maze test (reference value: 3.195 to 56.218 sec); details: in vivo, po, time 10-24 weeks
Mus musculus [14] = assay: Antialzheimer activity in 5XFAD mouse assessed as number of Thio-S positive plaques per FOV in […] cortex at 1200 ppm administered as rodent chow starting from 1.5 months and measured after 4 months by Thio-S staining based confocal microscopic analysis (reference value: 63 to 124); format: functional; details: route po, time 2.5 months, 1825 h
Mus musculus [15] = assay: Antialzheimer activity in 5XFAD mouse assessed as A11 protein intensity at 1200 ppm administered as rodent chow starting from 1.5 months and measured after 7 months by immunoblot analysis (reference value: 54.431 to 142.272 a.u.); format: functional; details: route po, time 5.5 months, 4015 h
Mus musculus [16] = assay: Antialzheimer activity in 5XFAD mouse assessed as number of GFAP positive cell per FOV in retro spinal cortex at 1200 ppm administered as rodent chow for 10 to 24 weeks by immunolabelling based confocal microscopic analysis (reference value: 217 to 477); format: functional; details: route po, time 10-24 weeks
[17] = Effect on Hexb gene expression in 5XFAD mouse hippocampus at 1200 ppm administered as rodent chow starting from 1.5 months and measured after 7 months by RNA-Seq analysis (reference value: 90.736 to 123.2 RPKM); format: functional; details: route po, time 5.5 months, 4015 h
[18] = Effect on Spi1 gene expression in wild type mouse thalamus at 1200 ppm administered as rodent chow starting from 1.5 months and measured after 7 months by RNA-Seq analysis (reference value: 1.161 to 2.277 RPKM); format: functional; details: route po, time 5.5 months, 4015 h
[19] = Effect on Spi1 gene expression in 5XFAD mouse cortex at 1200 ppm administered as rodent chow starting from 1.5 months and measured after 7 months by RNA-Seq analysis (reference value: 1.689 to 2.928 RPKM); format: functional; details: route po, time 5.5 months, 4015 h
[20] = Effect on Ctsd gene expression in wild type mouse hippocampus at 1200 ppm administered as rodent chow starting from 1.5 months and measured after 7 months by RNA-Seq analysis (reference value: 111.753 to 176.402 RPKM); format: functional; details: route po, time 5.5 months, 4015 h
[21] = Effect on St8sia5 gene expression in wildtype mouse hippocampus assessed as percent change in Reads Per kilo base per Million mapped reads at 1200 ppm administered as rodent chow starting from 1.5 months and measured after 7 months by RNA-Seq analysis (reference value: 83.570 to 112.150 %); format: functional; details: route po, time 5.5 months, 4015 h
[22] = Effect on Dynll1 gene expression in wildtype mouse hippocampus assessed as percent change in Reads Per kilo base per Million mapped reads at 1200 ppm administered as rodent chow starting from 1.5 months and measured after 7 months by RNA-Seq analysis (reference value: 83.247 to 113.338 %); format: functional; details: route po, time 5.5 months, 4015 h
Mus musculus [23] = assay: Prevention of Itgam gene upregulation in 5XFAD mouse hippocampus at 1200 ppm administered as rodent chow starting from 1.5 months and measured after 7 months by Nanostring analysis; format: functional, tissue-based; details: route po, time 5.5 months
Mus musculus [24] = assay: Antialzheimer activity in 5XFAD mouse assessed as reduction in plaque formation by measuring average plaque volume in somatosensory cortex at 1200 ppm administered as rodent chow starting from 1.5 months and measured after 4 months by immunolabeling based confocal microscopic analysis; format: functional; details: route po, time 2.5 months, 1825 h

Sequence of AMPK alpha2/beta1/gamma1 (P54646 whole entry): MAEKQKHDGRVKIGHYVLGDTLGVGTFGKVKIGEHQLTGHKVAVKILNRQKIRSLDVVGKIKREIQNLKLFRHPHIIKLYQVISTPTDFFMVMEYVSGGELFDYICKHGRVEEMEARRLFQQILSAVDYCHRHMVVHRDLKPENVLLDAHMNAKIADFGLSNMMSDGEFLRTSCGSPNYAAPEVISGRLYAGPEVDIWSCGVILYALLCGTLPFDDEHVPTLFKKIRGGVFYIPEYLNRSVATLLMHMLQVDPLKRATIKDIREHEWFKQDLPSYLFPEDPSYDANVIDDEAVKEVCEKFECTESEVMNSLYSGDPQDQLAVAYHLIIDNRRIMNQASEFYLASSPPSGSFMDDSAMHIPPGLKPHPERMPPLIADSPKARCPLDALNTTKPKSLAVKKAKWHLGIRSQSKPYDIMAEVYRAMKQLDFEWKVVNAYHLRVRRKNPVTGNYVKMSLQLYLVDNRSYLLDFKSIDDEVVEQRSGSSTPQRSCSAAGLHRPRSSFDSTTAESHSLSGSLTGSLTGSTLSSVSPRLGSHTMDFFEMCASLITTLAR
Sequence of AMPK alpha2/beta1/gamma1 (P54619 whole entry): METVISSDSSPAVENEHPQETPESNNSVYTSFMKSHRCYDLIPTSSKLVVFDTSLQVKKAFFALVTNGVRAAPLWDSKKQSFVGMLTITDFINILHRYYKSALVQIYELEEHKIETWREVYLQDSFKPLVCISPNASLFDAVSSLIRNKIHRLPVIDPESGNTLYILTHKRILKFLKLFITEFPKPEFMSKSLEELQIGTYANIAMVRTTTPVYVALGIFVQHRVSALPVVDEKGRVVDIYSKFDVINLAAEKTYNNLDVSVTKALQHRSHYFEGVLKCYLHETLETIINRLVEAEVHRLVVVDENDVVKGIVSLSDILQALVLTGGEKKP
Sequence of AMPK alpha2/beta1/gamma1 (Q9Y478 whole entry): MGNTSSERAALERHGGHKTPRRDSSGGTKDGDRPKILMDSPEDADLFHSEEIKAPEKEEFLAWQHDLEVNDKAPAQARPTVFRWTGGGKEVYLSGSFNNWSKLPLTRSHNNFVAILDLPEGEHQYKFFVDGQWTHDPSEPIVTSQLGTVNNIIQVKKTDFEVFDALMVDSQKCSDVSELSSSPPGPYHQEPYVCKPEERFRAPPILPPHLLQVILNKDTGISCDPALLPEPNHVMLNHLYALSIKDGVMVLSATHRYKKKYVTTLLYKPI
Sequence of Macrophage-stimulating protein receptor (Q04912 25-304 limits assumed): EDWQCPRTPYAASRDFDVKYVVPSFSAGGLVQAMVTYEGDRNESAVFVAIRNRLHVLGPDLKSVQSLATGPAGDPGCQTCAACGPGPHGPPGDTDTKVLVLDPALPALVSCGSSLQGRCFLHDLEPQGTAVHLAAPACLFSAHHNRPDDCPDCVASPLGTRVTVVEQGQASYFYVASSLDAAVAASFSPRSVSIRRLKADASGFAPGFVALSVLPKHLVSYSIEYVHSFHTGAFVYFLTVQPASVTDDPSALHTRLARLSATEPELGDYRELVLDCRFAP
Sequence of Macrophage-stimulating protein receptor (Q04912 310-1400 limits assumed): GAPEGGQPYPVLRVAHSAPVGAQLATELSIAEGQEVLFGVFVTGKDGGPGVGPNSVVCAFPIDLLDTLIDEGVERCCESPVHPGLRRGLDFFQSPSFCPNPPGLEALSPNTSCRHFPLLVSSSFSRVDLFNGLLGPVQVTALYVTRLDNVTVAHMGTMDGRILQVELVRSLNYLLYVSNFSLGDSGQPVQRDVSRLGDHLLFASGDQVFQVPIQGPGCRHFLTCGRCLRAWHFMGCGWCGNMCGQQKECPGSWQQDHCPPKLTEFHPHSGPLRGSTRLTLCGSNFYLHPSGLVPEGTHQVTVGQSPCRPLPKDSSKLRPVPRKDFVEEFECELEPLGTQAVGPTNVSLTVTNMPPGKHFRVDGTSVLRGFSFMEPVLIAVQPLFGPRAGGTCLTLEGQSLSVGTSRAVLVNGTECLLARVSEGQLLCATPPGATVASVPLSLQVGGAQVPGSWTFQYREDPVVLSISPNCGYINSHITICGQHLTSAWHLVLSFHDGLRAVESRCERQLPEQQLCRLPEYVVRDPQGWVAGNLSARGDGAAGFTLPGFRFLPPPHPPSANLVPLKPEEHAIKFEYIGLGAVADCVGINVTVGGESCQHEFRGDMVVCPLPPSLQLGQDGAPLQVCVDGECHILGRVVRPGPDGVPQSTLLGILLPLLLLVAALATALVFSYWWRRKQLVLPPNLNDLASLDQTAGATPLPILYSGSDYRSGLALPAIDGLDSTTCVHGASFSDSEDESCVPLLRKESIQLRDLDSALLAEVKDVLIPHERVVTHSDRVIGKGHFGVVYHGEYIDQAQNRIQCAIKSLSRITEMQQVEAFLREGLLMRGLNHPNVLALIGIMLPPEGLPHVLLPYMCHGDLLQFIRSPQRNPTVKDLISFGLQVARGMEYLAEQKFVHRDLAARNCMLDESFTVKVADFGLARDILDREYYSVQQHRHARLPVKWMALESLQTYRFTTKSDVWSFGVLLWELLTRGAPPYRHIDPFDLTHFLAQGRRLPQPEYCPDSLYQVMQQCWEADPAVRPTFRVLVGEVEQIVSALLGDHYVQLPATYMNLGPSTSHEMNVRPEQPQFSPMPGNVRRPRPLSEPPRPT
Sequence of Phosphorylase b kinase gamma catalytic chain, skeletal muscle/heart isoform (Q16816 whole entry, canonical isoform): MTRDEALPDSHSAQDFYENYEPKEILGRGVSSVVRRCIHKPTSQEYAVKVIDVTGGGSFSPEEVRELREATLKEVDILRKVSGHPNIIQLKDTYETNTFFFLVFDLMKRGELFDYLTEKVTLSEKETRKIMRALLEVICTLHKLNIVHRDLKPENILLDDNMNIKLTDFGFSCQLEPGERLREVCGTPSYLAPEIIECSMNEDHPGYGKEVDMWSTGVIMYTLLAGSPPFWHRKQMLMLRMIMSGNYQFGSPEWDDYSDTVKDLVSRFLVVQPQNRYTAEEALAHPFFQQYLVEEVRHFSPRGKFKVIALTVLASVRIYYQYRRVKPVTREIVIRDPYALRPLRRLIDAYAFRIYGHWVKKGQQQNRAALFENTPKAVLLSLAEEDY
Sequence of Ribosomal protein S6 kinase alpha-4 (O75676 whole entry): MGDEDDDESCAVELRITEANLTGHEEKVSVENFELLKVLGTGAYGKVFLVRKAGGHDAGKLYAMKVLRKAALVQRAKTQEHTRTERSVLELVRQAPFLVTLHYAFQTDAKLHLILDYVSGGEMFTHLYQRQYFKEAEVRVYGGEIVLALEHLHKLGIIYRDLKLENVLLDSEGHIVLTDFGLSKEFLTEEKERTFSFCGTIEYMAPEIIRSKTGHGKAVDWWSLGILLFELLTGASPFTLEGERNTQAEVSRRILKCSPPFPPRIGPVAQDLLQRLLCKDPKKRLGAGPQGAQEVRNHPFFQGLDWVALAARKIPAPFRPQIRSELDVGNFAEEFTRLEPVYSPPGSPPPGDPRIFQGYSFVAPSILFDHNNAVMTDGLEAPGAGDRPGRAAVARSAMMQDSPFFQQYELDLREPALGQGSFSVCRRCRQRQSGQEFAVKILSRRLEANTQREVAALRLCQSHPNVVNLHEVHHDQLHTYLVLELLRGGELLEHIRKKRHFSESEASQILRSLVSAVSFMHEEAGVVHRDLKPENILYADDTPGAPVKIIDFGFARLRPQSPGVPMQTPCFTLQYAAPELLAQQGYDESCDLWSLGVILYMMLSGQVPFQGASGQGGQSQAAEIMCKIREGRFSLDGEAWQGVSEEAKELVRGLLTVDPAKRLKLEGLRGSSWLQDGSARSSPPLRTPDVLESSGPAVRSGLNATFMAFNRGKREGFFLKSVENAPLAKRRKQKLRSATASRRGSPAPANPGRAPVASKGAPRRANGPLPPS
Sequence of Ribosomal protein S6 kinase alpha-1 (Q15418 whole entry): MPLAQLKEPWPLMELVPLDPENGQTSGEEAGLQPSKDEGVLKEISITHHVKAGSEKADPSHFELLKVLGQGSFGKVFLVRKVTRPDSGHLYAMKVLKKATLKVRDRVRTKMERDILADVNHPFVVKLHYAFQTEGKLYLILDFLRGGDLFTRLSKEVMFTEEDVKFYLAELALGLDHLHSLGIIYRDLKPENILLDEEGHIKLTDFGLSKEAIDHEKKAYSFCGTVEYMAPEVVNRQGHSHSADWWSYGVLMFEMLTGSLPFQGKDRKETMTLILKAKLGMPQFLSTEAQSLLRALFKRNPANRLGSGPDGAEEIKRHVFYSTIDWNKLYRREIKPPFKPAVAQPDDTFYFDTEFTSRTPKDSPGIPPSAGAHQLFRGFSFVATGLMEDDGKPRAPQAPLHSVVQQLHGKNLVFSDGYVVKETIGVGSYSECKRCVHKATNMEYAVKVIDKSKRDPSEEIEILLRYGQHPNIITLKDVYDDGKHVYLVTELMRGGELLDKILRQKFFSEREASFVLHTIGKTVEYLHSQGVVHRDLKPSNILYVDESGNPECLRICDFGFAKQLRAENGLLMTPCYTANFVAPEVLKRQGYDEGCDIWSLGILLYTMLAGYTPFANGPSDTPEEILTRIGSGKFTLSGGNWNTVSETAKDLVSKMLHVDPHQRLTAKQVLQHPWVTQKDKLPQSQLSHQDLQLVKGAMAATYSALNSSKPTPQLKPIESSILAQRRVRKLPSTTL

Question: What does the source list for `COc1ncc(F)cc1CNc1ccc(Cc2c[nH]c3ncc(C)cc23)c(F)n1` [PLX-5622]?
Answer: IC50 (AMPK alpha2/beta1/gamma1): > 1000 nM; IC50 [1]: > 1000 nM; IC50 [2]: > 1000 nM; IC50 [3]: > 1000 nM; IC50 [4]: > 1000 nM; IC50 [5]: > 1000 nM; IC50 [6]: > 1000 nM; IC50 [7]: > 1000 nM; IC50 [8]: > 1000 nM; AUC(0-inf) [9]: 6230 ng·h/mL; Vd [10]: 2.3 L/kg; Activity (Mus musculus [11]): 1; Time (Mus musculus [12]): 30.9 s; Time [13]: 6.755 s; Activity (Mus musculus [14]): 13; Flu intensity (Mus musculus [15]): 21.124 a.u.; Activity (Mus musculus [16]): 92; Activity [17]: 16.382 RPKM; Activity [18]: 0 RPKM; Activity [19]: 0.13 RPKM; Activity [20]: 89.626 RPKM; Activity [21]: 65.471%; Activity [22]: 101.141%; Activity (Mus musculus [23]): Active; Activity (Mus musculus [24]): 1533.351 um3
